Measurements from BigSolDB 2.1.

Question: Which solubility (mole fraction) (in 1,4-butanediol, 293.2 K) does the source give for `Cn1c([N+](=O)[O-])cnc1N1CCN(S(C)(=O)=O)C1=O` here?
Answer: Its solubility (mole fraction) is 0.000939.

Question: What about the solubility (mole fraction) (in 1,4-butanediol, 298.2 K) of the same compound?
Answer: The solubility (mole fraction) was 0.00132.

Question: What about the solubility (mole fraction) (in 1,4-butanediol, 303.2 K) of the same compound?
Answer: The solubility (mole fraction) was 0.00176.

Question: What about the solubility (mole fraction) (in 1,4-butanediol, 308.2 K) of the same compound?
Answer: Its solubility (mole fraction) is 0.0024.

Question: What about the solubility (mole fraction) (in 1,4-butanediol, 313.2 K) of the same compound?
Answer: The solubility (mole fraction) was 0.00315.

Question: What about the solubility (mole fraction) (in 1,4-dioxane, 293.2 K) of the same compound?
Answer: Its solubility (mole fraction) is 0.00814.

Question: And the solubility (mole fraction) (in 1,4-dioxane, 298.2 K)?
Answer: The solubility (mole fraction) was 0.0106.

Question: And the solubility (mole fraction) (in 1,4-dioxane, 303.2 K)?
Answer: The solubility (mole fraction) was 0.0127.

Question: And the solubility (mole fraction) (in 1,4-dioxane, 308.2 K)?
Answer: The solubility (mole fraction) was 0.0158.

Question: What about the solubility (mole fraction) (in 1,4-dioxane, 313.2 K) of the same compound?
Answer: Its solubility (mole fraction) is 0.0189.

Question: What about the solubility (mole fraction) (in DMAc, 293.2 K) of the same compound?
Answer: The solubility (mole fraction) was 0.0363.

Question: What about the solubility (mole fraction) (in DMAc, 298.2 K) of the same compound?
Answer: Its solubility (mole fraction) is 0.0481.

Question: And the solubility (mole fraction) (in DMAc, 303.2 K)?
Answer: Its solubility (mole fraction) is 0.0617.

Question: What about the solubility (mole fraction) (in DMAc, 308.2 K) of the same compound?
Answer: Its solubility (mole fraction) is 0.0765.

Question: And the solubility (mole fraction) (in DMAc, 313.2 K)?
Answer: Its solubility (mole fraction) is 0.0963.

Question: What about the solubility (mole fraction) (in DMF, 293.2 K) of the same compound?
Answer: Its solubility (mole fraction) is 0.0406.

Question: What about the solubility (mole fraction) (in DMF, 298.2 K) of the same compound?
Answer: The solubility (mole fraction) was 0.0542.

Question: What about the solubility (mole fraction) (in DMF, 303.2 K) of the same compound?
Answer: Its solubility (mole fraction) is 0.0683.

Question: And the solubility (mole fraction) (in DMF, 308.2 K)?
Answer: The solubility (mole fraction) was 0.083.

Question: And the solubility (mole fraction) (in DMF, 313.2 K)?
Answer: Its solubility (mole fraction) is 0.103.

Question: And the solubility (mole fraction) (in DMSO, 293.2 K)?
Answer: Its solubility (mole fraction) is 0.057.

Question: And the solubility (mole fraction) (in DMSO, 298.2 K)?
Answer: The solubility (mole fraction) was 0.0702.

Question: What about the solubility (mole fraction) (in DMSO, 303.2 K) of the same compound?
Answer: The solubility (mole fraction) was 0.085.

Question: And the solubility (mole fraction) (in DMSO, 308.2 K)?
Answer: The solubility (mole fraction) was 0.0987.

Question: What about the solubility (mole fraction) (in DMSO, 313.2 K) of the same compound?
Answer: The solubility (mole fraction) was 0.114.

Question: And the solubility (mole fraction) (in NMP, 293.2 K)?
Answer: The solubility (mole fraction) was 0.0796.

Question: And the solubility (mole fraction) (in NMP, 298.2 K)?
Answer: Its solubility (mole fraction) is 0.116.

Question: What about the solubility (mole fraction) (in NMP, 303.2 K) of the same compound?
Answer: The solubility (mole fraction) was 0.181.

Question: And the solubility (mole fraction) (in NMP, 308.2 K)?
Answer: Its solubility (mole fraction) is 0.262.

Question: What about the solubility (mole fraction) (in NMP, 313.2 K) of the same compound?
Answer: Its solubility (mole fraction) is 0.366.

Question: What about the solubility (mole fraction) (in PEG-200, 293.2 K) of the same compound?
Answer: The solubility (mole fraction) was 0.00829.

Question: What about the solubility (mole fraction) (in PEG-200, 298.2 K) of the same compound?
Answer: Its solubility (mole fraction) is 0.011.

Question: What about the solubility (mole fraction) (in PEG-200, 303.2 K) of the same compound?
Answer: Its solubility (mole fraction) is 0.0153.

Question: And the solubility (mole fraction) (in PEG-200, 308.2 K)?
Answer: Its solubility (mole fraction) is 0.0205.

Question: What about the solubility (mole fraction) (in PEG-200, 313.2 K) of the same compound?
Answer: The solubility (mole fraction) was 0.0271.

Question: What about the solubility (mole fraction) (in PEG-400, 293.2 K) of the same compound?
Answer: Its solubility (mole fraction) is 0.0123.

Question: And the solubility (mole fraction) (in PEG-400, 298.2 K)?
Answer: The solubility (mole fraction) was 0.0176.

Question: What about the solubility (mole fraction) (in PEG-400, 303.2 K) of the same compound?
Answer: The solubility (mole fraction) was 0.0247.

Question: And the solubility (mole fraction) (in PEG-400, 308.2 K)?
Answer: The solubility (mole fraction) was 0.0343.

Question: And the solubility (mole fraction) (in PEG-400, 313.2 K)?
Answer: The solubility (mole fraction) was 0.0462.

Question: What about the solubility (mole fraction) (in PEG-600, 293.2 K) of the same compound?
Answer: Its solubility (mole fraction) is 0.015.

Question: What about the solubility (mole fraction) (in PEG-600, 298.2 K) of the same compound?
Answer: Its solubility (mole fraction) is 0.0218.

Question: And the solubility (mole fraction) (in PEG-600, 303.2 K)?
Answer: The solubility (mole fraction) was 0.0302.

Question: And the solubility (mole fraction) (in PEG-600, 308.2 K)?
Answer: Its solubility (mole fraction) is 0.0429.

Question: What about the solubility (mole fraction) (in PEG-600, 313.2 K) of the same compound?
Answer: Its solubility (mole fraction) is 0.058.

Question: And the solubility (mole fraction) (in ethanol, 293.2 K)?
Answer: Its solubility (mole fraction) is 0.000378.

Question: And the solubility (mole fraction) (in ethanol, 298.2 K)?
Answer: Its solubility (mole fraction) is 0.00048.

Question: And the solubility (mole fraction) (in ethanol, 303.2 K)?
Answer: Its solubility (mole fraction) is 0.000582.

Question: And the solubility (mole fraction) (in ethanol, 308.2 K)?
Answer: The solubility (mole fraction) was 0.000726.

Question: And the solubility (mole fraction) (in ethanol, 313.2 K)?
Answer: The solubility (mole fraction) was 0.000851.

Question: What about the solubility (mole fraction) (in ethylene glycol, 293.2 K) of the same compound?
Answer: The solubility (mole fraction) was 0.000879.

Question: And the solubility (mole fraction) (in ethylene glycol, 298.2 K)?
Answer: Its solubility (mole fraction) is 0.00149.

Question: What about the solubility (mole fraction) (in ethylene glycol, 303.2 K) of the same compound?
Answer: The solubility (mole fraction) was 0.00228.

Question: And the solubility (mole fraction) (in ethylene glycol, 308.2 K)?
Answer: Its solubility (mole fraction) is 0.00358.

Question: What about the solubility (mole fraction) (in ethylene glycol, 313.2 K) of the same compound?
Answer: The solubility (mole fraction) was 0.00558.

Question: And the solubility (mole fraction) (in formamide, 293.2 K)?
Answer: Its solubility (mole fraction) is 0.0476.

Question: And the solubility (mole fraction) (in formamide, 298.2 K)?
Answer: The solubility (mole fraction) was 0.0591.

Question: And the solubility (mole fraction) (in formamide, 303.2 K)?
Answer: The solubility (mole fraction) was 0.0771.

Question: What about the solubility (mole fraction) (in formamide, 308.2 K) of the same compound?
Answer: The solubility (mole fraction) was 0.0938.

Question: And the solubility (mole fraction) (in formamide, 313.2 K)?
Answer: Its solubility (mole fraction) is 0.109.

Question: And the solubility (mole fraction) (in glycerin, 293.2 K)?
Answer: The solubility (mole fraction) was 0.000743.

Question: And the solubility (mole fraction) (in glycerin, 298.2 K)?
Answer: Its solubility (mole fraction) is 0.000861.

Question: And the solubility (mole fraction) (in glycerin, 303.2 K)?
Answer: The solubility (mole fraction) was 0.000984.

Question: And the solubility (mole fraction) (in glycerin, 308.2 K)?
Answer: The solubility (mole fraction) was 0.00114.

Question: And the solubility (mole fraction) (in glycerin, 313.2 K)?
Answer: Its solubility (mole fraction) is 0.00128.

Question: What about the solubility (mole fraction) (in isopropanol, 293.2 K) of the same compound?
Answer: Its solubility (mole fraction) is 0.000315.

Question: And the solubility (mole fraction) (in isopropanol, 298.2 K)?
Answer: The solubility (mole fraction) was 0.000368.

Question: What about the solubility (mole fraction) (in isopropanol, 303.2 K) of the same compound?
Answer: Its solubility (mole fraction) is 0.000447.

Question: And the solubility (mole fraction) (in isopropanol, 308.2 K)?
Answer: Its solubility (mole fraction) is 0.000527.

Question: And the solubility (mole fraction) (in isopropanol, 313.2 K)?
Answer: The solubility (mole fraction) was 0.000659.

Question: And the solubility (mole fraction) (in methanol, 293.2 K)?
Answer: Its solubility (mole fraction) is 0.000481.

Question: And the solubility (mole fraction) (in methanol, 298.2 K)?
Answer: Its solubility (mole fraction) is 0.000539.

Question: What about the solubility (mole fraction) (in methanol, 303.2 K) of the same compound?
Answer: Its solubility (mole fraction) is 0.000624.

Question: What about the solubility (mole fraction) (in methanol, 308.2 K) of the same compound?
Answer: Its solubility (mole fraction) is 0.000739.

Question: And the solubility (mole fraction) (in methanol, 313.2 K)?
Answer: Its solubility (mole fraction) is 0.000871.

Question: What about the solubility (mole fraction) (in n-propanol, 293.2 K) of the same compound?
Answer: Its solubility (mole fraction) is 0.000356.

Question: What about the solubility (mole fraction) (in n-propanol, 298.2 K) of the same compound?
Answer: Its solubility (mole fraction) is 0.000436.

Question: What about the solubility (mole fraction) (in n-propanol, 303.2 K) of the same compound?
Answer: The solubility (mole fraction) was 0.000541.

Question: What about the solubility (mole fraction) (in n-propanol, 308.2 K) of the same compound?
Answer: The solubility (mole fraction) was 0.000673.

Question: What about the solubility (mole fraction) (in n-propanol, 313.2 K) of the same compound?
Answer: The solubility (mole fraction) was 0.000832.

Question: And the solubility (mole fraction) (in propylene glycol, 293.2 K)?
Answer: Its solubility (mole fraction) is 0.00136.

Question: And the solubility (mole fraction) (in propylene glycol, 298.2 K)?
Answer: Its solubility (mole fraction) is 0.00232.

Question: And the solubility (mole fraction) (in propylene glycol, 303.2 K)?
Answer: The solubility (mole fraction) was 0.00347.

Question: And the solubility (mole fraction) (in propylene glycol, 308.2 K)?
Answer: Its solubility (mole fraction) is 0.00538.

Question: And the solubility (mole fraction) (in propylene glycol, 313.2 K)?
Answer: The solubility (mole fraction) was 0.00836.

Question: What about the solubility (mole fraction) (in water, 293.2 K) of the same compound?
Answer: Its solubility (mole fraction) is 2.86e-06.

Question: And the solubility (mole fraction) (in water, 298.2 K)?
Answer: The solubility (mole fraction) was 3.21e-06.

Question: What about the solubility (mole fraction) (in water, 303.2 K) of the same compound?
Answer: The solubility (mole fraction) was 3.66e-06.

Question: What about the solubility (mole fraction) (in water, 308.2 K) of the same compound?
Answer: Its solubility (mole fraction) is 4.24e-06.

Question: And the solubility (mole fraction) (in water, 313.2 K)?
Answer: Its solubility (mole fraction) is 5.06e-06.
